Molecules are shown by their SMILES.

ED50 and pKa data for eleven compounds are collected here from ChEMBL document CHEMBL1126232, “3-oxagranatane (3-oxa-9-azabicyclo[3.3.1]nonane) derivatives as highly potent serotonin 5-Ht3 receptor antagonists” (Bioorg Med Chem Lett, 1992).

For one data set, the species on record is Rattus norvegicus. The data set can be described thus: animal or person. Format: functional. The note with it: iv, read-out: ID50 (the source's name).
Data set [1] can be described thus: pKa value was determined. Type of data set: physicochemical.

Description for Rattus norvegicus: Antagonistic activity towards serotonin 5-HT3 receptor was evaluated by inhibition of 5-HT evoked reflexes in rat on intravenous administration

`CN1C2CCC1CC(NC(=O)N1CCc3ccccc31)C2` (stereo not drawn): the ED50 in the data set filed under Rattus norvegicus was 1.4 µg/kg.
The same measure, in the same setting: the figure for `COc1cc(N)c(Cl)cc1C(=O)NC1CC2CCCC(C1)N2C` (stereo not drawn) is 0.4 µg/kg; for `COc1cc(N)c(Cl)cc1C(=O)NC1CC2COCC(C1)N2C` (stereo not drawn) it is 0.09 µg/kg; for `CN1C2COCC1CC(NC(=O)c1nn(C)c3ccccc13)C2` (stereo not drawn) it is 0.16 µg/kg.
In the case of `COc1cc(N)c(Cl)cc1C(=O)NC1CC2CCC(C1)N2C` (stereo not drawn), the ED50 in the data set listed under Rattus norvegicus was found to be 0.8 µg/kg.
Broadly, the pKa is the negative logarithm of the acid dissociation constant. Read a low pKa as a group that gives up its proton readily. On to `CN1C2COCC1CC(NC(=O)N1CC(C)(C)c3ccccc31)C2` (stereo not drawn), for which the ED50 in the data set listed under Rattus norvegicus worked out at 0.13 µg/kg. The pKa in data set [1] is 7.1.
For `CN1C2CCC1CC(NC(=O)N1CC(C)(C)c3ccccc31)C2` (stereo not drawn), the ED50 in the data set listed under Rattus norvegicus was 0.7 µg/kg. The compound further displayed a pKa in data set [1] of 9.4.
Take `COc1ccccc1NC(=O)NC1CC2CCCC(C1)N2C` (stereo not drawn): in the data set listed under Rattus norvegicus, the ED50 was 7.5 µg/kg.
Take `COc1ccccc1NC(=O)NC1CC2CCC(C1)N2C` (stereo not drawn): the ED50 in the data set listed under Rattus norvegicus was found to be 2.5 µg/kg.
As to `CN1C2CCCC1CC(NC(=O)c1nn(C)c3ccccc13)C2` (stereo not drawn) [GRANISETRON], in data set [1], the pKa was 9.1.
Turning to `COc1ccccc1NC(=O)NC1CC2COCC(C1)N2C` (stereo not drawn), the ED50 in the data set listed under Rattus norvegicus is 1.1 µg/kg.
